Measured values published in PubChem BioAssay (NCI).
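Interpolation was linear, between the two tested concentrations surrounding the appropriate level; five concentrations were tested over 48 hours in 96-well plates. GI50 is the concentration that inhibits growth by half. TGI marks complete inhibition of growth.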

Columns and labels:
Test in all cases: growth of human tumour cells (NCI), 48 h
ACHN renal = system: ACHN renal
HCT-116 colon = system: HCT-116 colon
HL-60(TB) leukemia = system: HL-60(TB) leukemia
MDA-MB-231 breast = system: MDA-MB-231 breast
MOLT-4 leukemia = system: MOLT-4 leukemia
NCI-H23 lung = system: NCI-H23 lung
NCI-H522 lung = system: NCI-H522 lung
RPMI-8226 leukemia = system: RPMI-8226 leukemia
SR leukemia = system: SR leukemia
SW-620 colon = system: SW-620 colon

COc1ccc(C/C(C)=C(/c2ccc(OCCN3CCCCC3)cc2)c2ccc(OC(=O)NCc3ccccc3)cc2)cc1
GI50 (ACHN renal): 0.434 µM
TGI (ACHN renal): 0.78 µM
GI50 (HCT-116 colon): 0.33 µM
TGI (HCT-116 colon): 0.698 µM
GI50 (HL-60(TB) leukemia): 0.391 µM
TGI (HL-60(TB) leukemia): 0.895 µM
GI50 (MDA-MB-231 breast): 0.44 µM
TGI (MDA-MB-231 breast): 0.81 µM
GI50 (MOLT-4 leukemia): 0.404 µM
TGI (MOLT-4 leukemia): 1.1 µM
GI50 (NCI-H23 lung): 0.425 µM
TGI (NCI-H23 lung): 0.838 µM
GI50 (NCI-H522 lung): 0.49 µM
TGI (NCI-H522 lung): 0.928 µM
GI50 (RPMI-8226 leukemia): 0.399 µM
TGI (RPMI-8226 leukemia): 0.963 µM
GI50 (SR leukemia): 0.353 µM
TGI (SR leukemia): 1.34 µM
GI50 (SW-620 colon): 0.419 µM
TGI (SW-620 colon): 0.808 µM

C#CC#CC#CC#CC#CC#CC#CC#CCC1OCC(COC(=O)O[C@@H](C(=O)O[C@H]2C[C@@]3(O)[C@@H](OC(=O)c4ccccc4)[C@@H]4[C@]5(OC(C)=O)CO[C@@H]5C[C@H](O)[C@@]4(C)C(=O)[C@H](OC(C)=O)C(=C2C)C3(C)C)[C@@H](NC(=O)c2ccccc2)c2ccccc2)O1 (some centres undefined)
GI50 (ACHN renal): > 24.7 µM
TGI (ACHN renal): > 33.3 µM
GI50 (HCT-116 colon): 0.0533 µM
TGI (HCT-116 colon): > 33.3 µM
GI50 (HL-60(TB) leukemia): 0.099 µM
GI50 (MDA-MB-231 breast): 0.447 µM
TGI (MDA-MB-231 breast): > 33.3 µM
GI50 (MOLT-4 leukemia): 0.212 µM
TGI (MOLT-4 leukemia): > 33.3 µM
GI50 (NCI-H23 lung): 0.465 µM
TGI (NCI-H23 lung): > 33.3 µM
GI50 (NCI-H522 lung): 0.166 µM
TGI (NCI-H522 lung): > 33.3 µM
GI50 (RPMI-8226 leukemia): 0.0472 µM
TGI (RPMI-8226 leukemia): > 33.3 µM
GI50 (SR leukemia): 0.0991 µM
TGI (SR leukemia): > 33.3 µM
GI50 (SW-620 colon): 0.104 µM
TGI (SW-620 colon): > 33.3 µM

NC(=O)N/N=C1/CCC(O)CC1CC(=O)O (centres undefined)
TGI (ACHN renal): > 100 µM
TGI (HCT-116 colon): > 100 µM
TGI (HL-60(TB) leukemia): 31.9 µM
TGI (MDA-MB-231 breast): > 100 µM
TGI (MOLT-4 leukemia): > 100 µM
TGI (NCI-H23 lung): > 100 µM
TGI (NCI-H522 lung): > 100 µM
TGI (RPMI-8226 leukemia): > 100 µM
TGI (SR leukemia): > 100 µM
TGI (SW-620 colon): > 100 µM

N#C/C(=C\c1ccsc1)c1nc2ccccc2o1
GI50 (ACHN renal): 45.2 µM
TGI (ACHN renal): > 100 µM
GI50 (HCT-116 colon): 35.7 µM
TGI (HCT-116 colon): > 100 µM
GI50 (HL-60(TB) leukemia): > 100 µM
TGI (HL-60(TB) leukemia): > 100 µM
GI50 (MDA-MB-231 breast): 22.4 µM
TGI (MDA-MB-231 breast): > 100 µM
GI50 (MOLT-4 leukemia): > 100 µM
TGI (MOLT-4 leukemia): > 100 µM
GI50 (NCI-H23 lung): > 100 µM
TGI (NCI-H23 lung): > 100 µM
GI50 (NCI-H522 lung): 50.6 µM
TGI (NCI-H522 lung): > 100 µM
GI50 (RPMI-8226 leukemia): 61.7 µM
TGI (RPMI-8226 leukemia): > 100 µM
GI50 (SR leukemia): > 100 µM
TGI (SR leukemia): > 100 µM
GI50 (SW-620 colon): > 100 µM
TGI (SW-620 colon): > 100 µM

O=C1OCC2=C1C(c1cccc(Cl)c1)c1cc3c(cc1N2CCO)OCCO3 (centres undefined)
GI50 (ACHN renal): 0.0733 µM
TGI (ACHN renal): > 100 µM
GI50 (HCT-116 colon): 0.0566 µM
TGI (HCT-116 colon): 4.01 µM
GI50 (HL-60(TB) leukemia): 0.0472 µM
TGI (HL-60(TB) leukemia): 0.346 µM
GI50 (MDA-MB-231 breast): 0.334 µM
TGI (MDA-MB-231 breast): 4.26 µM
GI50 (MOLT-4 leukemia): 0.348 µM
TGI (MOLT-4 leukemia): > 100 µM
GI50 (NCI-H23 lung): 0.097 µM
TGI (NCI-H23 lung): > 57.2 µM
GI50 (NCI-H522 lung): 0.0204 µM
TGI (NCI-H522 lung): 0.0608 µM
GI50 (RPMI-8226 leukemia): 0.129 µM
TGI (RPMI-8226 leukemia): 19.2 µM
GI50 (SR leukemia): 0.0581 µM
TGI (SR leukemia): 67.4 µM
GI50 (SW-620 colon): 0.04 µM
TGI (SW-620 colon): > 100 µM

NCCCC[C@@H]1NC(=O)[C@H]2CCCN2C(=O)[C@H](Cc2ccccc2)CNC(=O)[C@H](Cc2ccccc2)NC1=O
GI50 (ACHN renal): > 37.5 µM
TGI (ACHN renal): > 37.5 µM
GI50 (HCT-116 colon): > 37.5 µM
TGI (HCT-116 colon): > 37.5 µM
GI50 (HL-60(TB) leukemia): > 11.3 µM
TGI (HL-60(TB) leukemia): > 37.5 µM
GI50 (MDA-MB-231 breast): > 37.5 µM
TGI (MDA-MB-231 breast): > 37.5 µM
GI50 (MOLT-4 leukemia): > 37.5 µM
TGI (MOLT-4 leukemia): > 37.5 µM
GI50 (NCI-H23 lung): > 37.5 µM
TGI (NCI-H23 lung): > 37.5 µM
GI50 (NCI-H522 lung): > 37.5 µM
TGI (NCI-H522 lung): > 37.5 µM
GI50 (RPMI-8226 leukemia): > 37.5 µM
TGI (RPMI-8226 leukemia): > 37.5 µM
GI50 (SR leukemia): 31.9 µM
TGI (SR leukemia): > 37.5 µM
GI50 (SW-620 colon): > 37.5 µM
TGI (SW-620 colon): > 37.5 µM

COc1cc(OC)c2nc(C)c3c(c2c1)SCC3
TGI (ACHN renal): 34.5 µM
TGI (HCT-116 colon): 48.5 µM
TGI (HL-60(TB) leukemia): > 100 µM
TGI (MDA-MB-231 breast): 44.7 µM
TGI (MOLT-4 leukemia): > 100 µM
TGI (NCI-H23 lung): 58.6 µM
TGI (NCI-H522 lung): 77.8 µM
TGI (RPMI-8226 leukemia): 64.4 µM
TGI (SR leukemia): 52.2 µM
TGI (SW-620 colon): > 100 µM

CC1=C(C(=O)Nc2ccc3n[nH]c(C)c3c2)C(c2ccc(C(F)(F)F)cc2)CC(=O)N1 (centres undefined)
GI50 (ACHN renal): > 25 µM
TGI (ACHN renal): > 25 µM
GI50 (HCT-116 colon): 12.5 µM
TGI (HCT-116 colon): > 25 µM
GI50 (HL-60(TB) leukemia): > 25 µM
TGI (HL-60(TB) leukemia): > 25 µM
GI50 (MDA-MB-231 breast): 15.9 µM
TGI (MDA-MB-231 breast): > 25 µM
GI50 (MOLT-4 leukemia): 16.4 µM
TGI (MOLT-4 leukemia): > 25 µM
GI50 (NCI-H23 lung): > 17.6 µM
TGI (NCI-H23 lung): > 25 µM
GI50 (NCI-H522 lung): 9.13 µM
TGI (NCI-H522 lung): > 21.5 µM
GI50 (RPMI-8226 leukemia): > 25 µM
TGI (RPMI-8226 leukemia): > 25 µM
GI50 (SR leukemia): > 16.4 µM
TGI (SR leukemia): > 25 µM
GI50 (SW-620 colon): 11 µM
TGI (SW-620 colon): > 25 µM
